Earlier results on 5 compounds are cited in patent US5177064A, “Targeted drug delivery via phosphonate derivatives” (University of Florida, priority 1990, dated 1993).

Broadly, the IC50 is the concentration at which inhibition is half-maximal. For orientation: aqueous solubility means the dissolved amount per volume that the medium holds. Usually log P stands for a log measure of how a compound divides between an organic and an aqueous phase.

The conditions of data set [1]: human, in vivo.
Data set [2] relates to encephalitis. The conditions noted are these: treatment of encephalitis in vitro and in vivo.
The test system of data set [3] is HCMV. The conditions noted are these: in vitro; read-out: IC50 against HCMV.
For data set [4] the following is noted: at 37° C.
The conditions of data set [5]: humans.
Data set [6] has as its system encephalitis.
Setting [7] is: intravenous, biphasic elimination.

In brackets after ≈: the same amount, converted by molar mass.

For `Cc1cn([C@H]2C[C@H](N=[N+]=[N-])[C@@H](CO)O2)c(=O)[nH]c1=O` [AZT, azidothymidine], the bioavailability entry in data set [1] is given as “about 60%”.
Consider `Nc1ncnc2c1ncn2[C@@H]1O[C@H](CO)[C@@H](O)[C@@H]1O` [Ara-A, 9-β-D-arabinofuranosyladenine], for which the “log P (octanol/water)” value (octanol/water) is “negative”.
In the case of `Nc1nc(O)c2ncn(COC(CO)CO)c2n1` [DHPG, Dihydroxypropoxymethylgaunine], the “effectiveness relative to acyclovir” value in data set [2] is reported as “at least 100 fold”. Further, the IC50 in data set [3] was roughly 2500 nM. Besides, the aqueous solubility in data set [4] is 5100 µg/mL (≈ 20 mM). The “drug excreted unchanged by the kidneys” value in data set [5] is 99%. In addition, in data set [5] (based on urinary excretion), the oral bioavailability is reported as 3-4.6%. In data set [5] (setting [7]), the α-phase half-life was 0.23 h and the β-phase half-life is 2.53 h.
Consider `Cc1cn([C@@H]2O[C@H](CO)[C@@H](O)[C@@H]2F)c(=O)[nH]c1=O` [FMAU], for which, in data set [6] (in vivo), the “doses producing irreversible neurological damage” value is listed as “greater than 32 mg”. For the same compound, the therapeutic index entry in data set [6] (treating encephalitis) was “greater than 3,000”.
Consider `NC(=O)c1ncn([C@@H]2O[C@H](CO)[C@@H](O)[C@H]2O)n1` [ribavirin, 1-β-D-ribofuranosyl-1,2,4-triazole-3-carboxamide], for which the “log P” value is 2.06.
